# Measured values reported in PMC8148468, “Shikimic acid protects skin cells from UV-induced senescence through activation of the NAD+-dependent deacetylase SIRT1” (Aging (Albany NY), 2021).
# Columns and labels:
# Assay type in all cases: cell-based, human
# spliced-XBP1 = assay: Spliced XBP1 mRNA (qPCR); settings: UVB-irradiated cells, SA treatment
# Method: Figure 5 (A) Western-blot of BiP proteins levels in UVB or non UVB irradiated cells treated with SA at the indicated concentrations in presence or absence of EX-527 1 μM. (B) Quantification of n=3 experiments as (A). The levels of BiP are normalized by the loading control (histone H3) and represented related to the conditions in UVB irradiated cells in absence of SA and EX-527. Student T-test, *p<0.05. (C) Percentage of SA-β-Gal in assays performed as in Figure 3C. (D) Levels of spliced and unspliced XBP1 mRNA monitored by qPCR analysis in cells treated in the indicated conditions in presence or absence of SA and/or EX-527. The levels were normalized by internal controls and represented in each case related to the conditions in UVB irradiated cells in absence of SA and EX-527. […]
# (§1) RNA was extracted from cell pellets using the Total RNA Purification Kit (Norgen, Canada), according to the manufacturer’s protocol. Extracted RNA was quantified using a NanoDrop® ND-1000 UV-Vis Spectrophotometer (Thermo Fisher Scientific, USA) and 300 ng of RNA were retrotranscribed to cDNA using the PrimeScriptTM RT reagent kit (Takara Bio Inc., Japan). cDNA was diluted 1/10 in ultrapure water and qPCR mix was prepared by adding cDNA (12 ng), SYBR green supermix (Bio Rad, USA), forward and reverse primers (0.2μM). […] The results were analyzed with Bio-Rad CFX Manager software. […]
# IL-6 = IL-6 mRNA levels (qPCR); settings: UVB-irradiated HDF, SA 10, 25, 50 mM -/+ EX-527 1 μM
# Method: Figure 3 (A) Schematic representation of the protocol for senescence induction using UVB irradiation and study of EX527 involvement in the effect of Shikimic acid. Cells were treated with or without shikimic acid -/+ EX-527 from day 1 until day 7 after seeding, irradiated with UVB on days 2 and 5 and harvested for analysis on day 7. (B) Phase-contrast (left column) and bright field (right column) microscope images of β-Gal staining showing non-irradiated cells non-treated and treated with shikimic acid (10, 25 and 50 mM), UVB-irradiated cells non-treated and treated with shikimic acid (10, 25 and 50 mM), shikimic acid (10, 25 and 50 mM) + EX-527 1 μM and EX-527 1 μM. […] SIRT1 activity was then evaluated by analyzing acetylation of H3K9, H4K16 and p53K382 by Western blot. […]
# as §1
# LC3-II = LC3-II protein levels (Western blot); settings: UVB-irradiated cells, SA -/+ EX-527 1 μM (reversion at SA 10mM)
# Method: Figure 5 (A) Western-blot of BiP proteins levels in UVB or non UVB irradiated cells treated with SA at the indicated concentrations in presence or absence of EX-527 1 μM. (B) Quantification of n=3 experiments as (A). The levels of BiP are normalized by the loading control (histone H3) and represented related to the conditions in UVB irradiated cells in absence of SA and EX-527. Student T-test, *p<0.05. (C) Percentage of SA-β-Gal in assays performed as in Figure 3C. (D) Levels of spliced and unspliced XBP1 mRNA monitored by qPCR analysis in cells treated in the indicated conditions in presence or absence of SA and/or EX-527. The levels were normalized by internal controls and represented in each case related to the conditions in UVB irradiated cells in absence of SA and EX-527. Student T-test, *p<0.05, **p<0.01, ***p<0.001. (E) LC3-II protein levels in experiments like in (A). The levels of LC3-II are normalized by the loading control (tubulin) and represented related to the conditions in UVB irradiated cells in absence of SA and EX-527. Student T-test, *p<0.05. (F) Proposed Model for the effect of SA on senescence through SIRT1. Other possible unexplored connections between SA and senescence are indicated by blue broken lines.
# Protein levels were analyzed as previously described. Cells were directly lysed in 1x Laemmli Buffer (Bio-Rad, USA), incubated at 95° C and centrifuged. […]
# [1] = test system: H4K16ac (the target of SIRT1 and SIRT2); assay: Sirtuin activity assay in HDF: H4K16ac levels (Western blot); settings: UV conditions, -/+25mM SA -/+1μM EX-527
smiles,measurement,setting,value
O=C(O)C1=C[C@@H](O)[C@@H](O)[C@H](O)C1 [Shikimic acid],spliced XBP1 mRNA levels,spliced-XBP1,induced a decrease in spliced-XBP1
same,IL-6 mRNA levels,IL-6,induced a reduction in the levels of expression of the inflammatory cytokine IL-6
same,LC3-II protein levels,LC3-II,SA-dependent decrease in the levels of LC3-II
same,H4K16ac/H4 levels under UV-induced senescence,[1],induced increased deacetylation of H3K9ac and H4K16ac
